{
  "source": "patent US6071902A",
  "about": "“Method for treating excessive aggression” (Eli Lilly and Company, priority 1997, dated 2000)",
  "key": {"[1]": {"tested_on": "5-HT1C receptor", "test": "pharmacological studies, 5-HT1C receptor activity"}, "[2]": {"tested_on": "excessive aggression", "test": "double-blind multicenter clinical trial, olanzapine or placebo", "type": "in vivo, human", "settings": "patients randomized to olanzapine or placebo", "text": "A double-blind multicenter clinical trial was designed to assess the safety and efficacy of olanzapine. Patients were randomized to olanzapine or placebo."}, "[3]": {"test": "detection of radiolabelled olanzapine in saliva", "type": "in vivo", "method": "For example, in the treatment of adult humans, dosages of from 5 to 20 mg per day may be used. A once a day dosage is normally sufficient, although divided doses may be administered. For treatment of extreme aggression, a dose range of from 5 to 20 mg per day is suitable."}, "[4]": {"tested_on": "muscarinic cholinergic receptor", "test": "pharmacological studies, muscarinic cholinergic receptor activity"}},
  "data": [
    {"smiles": "Cc1cc2c(s1)Nc1ccccc1N=C2N1CCN(C)CC1", "note": "[olanzapine, 2-methyl-4-(4-methyl-1-piperazinyl)-10H-thieno[2,3-b][1,5]benzodiazepine]", "values": [
      {"measurement": "activity at the 5-HT1C receptor", "setting": "[1]", "value": "active"},
      {"measurement": "efficacy in treatment of excessive aggression", "setting": "[2]", "value": "can be useful for the treatment of excessive aggression"},
      {"measurement": "detection in saliva", "setting": "[3]", "value": "can be detected in the saliva"},
      {"measurement": "muscarinic cholinergic receptor activity", "setting": "[4]", "value": "has muscarinic cholinergic receptor activity"}
    ]}
  ]
}
